# Source: patent US9255078B2, “Micheliolide derivatives, medicinal composition, producing method and usage thereof” (ACCENDATECH, priority 2010, dated 2016)
# Counter-ions that a name gives are not always drawn. Like-named read-outs stand apart in the source and are kept apart here.
# What was measured:
# Assay type in all cases: cell-based
# Settings in all cases: incubated 18 hours, read-out: inhibitory activity against different cancer cells (IC50)
# HL-60 = test: MTT assay, HL-60 acute leukemia cell lines
# Description: (§1) A variety of cancer cells are suspended to 2×10^5/mL, and then added into 24-hole Round-bottomed tissue culture plate. After that micheliolide and its derivatives are added, herein a test with one density occupies 5 holes. The resulting suspension are incubated (under 37° C., 5% CO2) for 18 hours to allow the compounds to take effect. A absorbance (A) value is measured by using the method of MTT assay and an enzyme-linked detector under 570 nm wavelength, and then the inhibitory activity of the compounds is concluded.
# (§2) In Table 1, HL-60, K562, MCF-7, CNE-1, CNE-2, SW620, A549, HepG2, Ec9706, SGC7901, SW1116, A498, ASPC-1, HT-29, HeLa, GL15, B16F1, T24, SKOV3, SW579, PC-3, represents acute leukemia cell lines, Chronic leukemia cell lines, Breast cancer cell lines, High differentiation nasopharyngeal carcinoma cell line, Poorly differentiated nasopharyngeal carcinoma cell lines, Colorectal cancer cell line, Lung cancer cell lines, Hepatocellular carcinoma cell lines, Esophageal cancer cell line, Gastric cancer cell line, Colon cancer cell line, Renal cell carcinoma cell line, Pancreatic cancer cell line, Colon cancer cell lines, uterine cervical cancer cell lines, Horny man neuroblastoma cell lines, Melanoma cell line, human bladder cancer cell line, ovarian cancer cell lines, thyroid cancer cells, prostate cancer cell lines, respectively.
# K562 = test: MTT assay, K562 chronic leukemia cell lines
# Description: as §1, §2
# MCF-7 = test: MTT assay, MCF-7 breast cancer cell lines
# Description: as §1, §2
# CNE-1 = test: MTT assay, CNE-1 high differentiation nasopharyngeal carcinoma cell line
# Description: as §1, §2
# CNE-2 = test: MTT assay, CNE-2 poorly differentiated nasopharyngeal carcinoma cell lines
# Description: as §1, §2
# SW620 = test: MTT assay, SW620 colorectal cancer cell line
# Description: as §1, §2
# A549 = test: MTT assay, A549 lung cancer cell lines
# Description: as §1, §2
# HepG-2 = test: MTT assay, HepG-2 hepatocellular carcinoma cell lines
# Description: as §1, §2
# Ec9706 = test: MTT assay, Ec9706 esophageal cancer cell line
# Description: as §1, §2
# SGC7901 = test: MTT assay, SGC7901 gastric cancer cell line
# Description: as §1, §2
# SW1116 = test: MTT assay, SW1116 colon cancer cell line
# Description: as §1, §2
# A498 = test: MTT assay, A498 renal cell carcinoma cell line
# Description: as §1, §2
# ASPC-1 = test: MTT assay, ASPC-1 pancreatic cancer cell line
# Description: as §1, §2
# HT-29 = test: MTT assay, HT-29 colon cancer cell lines
# Description: as §1, §2
# HeLa = test: MTT assay, HeLa uterine cervical cancer cell lines
# Description: as §1, §2
# GL15 = test: MTT assay, GL15 neuroblastoma cell lines
# Description: as §1, §2
# B16F1 = test: MTT assay, B16F1 melanoma cell line
# Description: as §1, §2
# T24 = test: MTT assay, T24 human bladder cancer cell line
# Description: as §1, §2
# SKOV3 = test: MTT assay, SKOV3 ovarian cancer cell lines
# Description: as §1, §2
# SW579 = test: MTT assay, SW579 thyroid cancer cells
# Description: as §1, §2
# PC-3 = test: MTT assay, PC-3 prostate cancer cell lines
# Description: as §1, §2
compound,measurement,setting,value
"CC1=C2CC[C@@](C)(O)[C@@H]2[C@H]2OC(=O)[C@@H](CN(C)C)[C@@H]2CC1 [Compound V, 11βH,13-Dihydro, 13-dimethylaminomicheliolide hydrochloride]",IC50,HL-60; hydrochloride,11.5 nM
same,IC50,K562; hydrochloride,21.4 nM
same,IC50,MCF-7; hydrochloride,26.8 nM
same,IC50,CNE-1; hydrochloride,22.5 nM
same,IC50,CNE-2; hydrochloride,16.9 nM
same,IC50,SW620; hydrochloride,13.5 nM
same,IC50,A549; hydrochloride,18.1 nM
same,IC50,HepG-2; hydrochloride,27.9 nM
same,IC50,Ec9706; hydrochloride,15.7 nM
same,IC50,SGC7901; hydrochloride,24.9 nM
same,IC50,SW1116; hydrochloride,31.2 nM
same,IC50,A498; hydrochloride,16.3 nM
same,IC50,ASPC-1; hydrochloride,33.6 nM
same,IC50,HT-29; hydrochloride,19.2 nM
same,IC50,HeLa; hydrochloride,33.4 nM
same,IC50,GL15; hydrochloride,25.8 nM
same,IC50,B16F1; hydrochloride,18.6 nM
same,IC50,T24; hydrochloride,22.5 nM
same,IC50,SKOV3; hydrochloride,15.4 nM
same,IC50,SW579; hydrochloride,32.6 nM
same,IC50,PC-3; hydrochloride,23.5 nM
"CC1=C2CC[C@@](C)(O)[C@@H]2[C@H]2OC(=O)[C@@H](CN(C)C)[C@@H]2CC1 [Compound II, 11βH,13-Dihydro, 13-dimethylaminomicheliolide]",IC50,HL-60,2.4 nM
same,IC50,K562,4.2 nM
same,IC50,MCF-7,4.6 nM
same,IC50,CNE-1,11.2 nM
same,IC50,"CNE-2; Homo sapiens, CNE-2, 18 h",16.5 nM
same,IC50,SW620,5.8 nM
same,IC50,A549,7.2 nM
same,IC50,HepG-2,4.5 nM
same,IC50,"Ec9706; Homo sapiens, EC9706, 18 h",9.2 nM
same,IC50,"SGC7901; Homo sapiens, SGC-7901, 18 h",14.6 nM
same,IC50,SW1116,11.5 nM
same,IC50,"A498; Homo sapiens, A498, 18 h",12.4 nM
same,IC50,ASPC-1,3.9 nM
same,IC50,HT-29,4.8 nM
same,IC50,HeLa,9.4 nM
same,IC50,GL15,12.6 nM
same,IC50,B16F1,3.4 nM
same,IC50,"T24; Homo sapiens, T-24, 18 h",14.2 nM
same,IC50,SKOV3,5.9 nM
same,IC50,"SW579; SW579, 18 h",17.3 nM
same,IC50,PC-3,8.7 nM
"C=C1C(=O)O[C@H]2[C@H]1CCC(C)=C1CC[C@@](C)(OC(=O)CC)[C@@H]12 [Compound III, 4-propionylmicheliolide]",IC50,"HL-60; Homo sapiens, HL-60, 18 h",4.5 nM
same,IC50,"K562; Homo sapiens, K562, 18 h",6.7 nM
same,IC50,"MCF-7; Homo sapiens, MCF7, 18 h",3.4 nM
same,IC50,CNE-1; 18 h,5.9 nM
same,IC50,"CNE-2; Homo sapiens, CNE-2, 18 h",12.4 nM
same,IC50,"SW620; Homo sapiens, SW-620, 18 h",5.6 nM
same,IC50,"A549; Homo sapiens, A549, 18 h",7.7 nM
same,IC50,"HepG-2; Homo sapiens, HepG2, 18 h",15.4 nM
same,IC50,"Ec9706; Homo sapiens, EC9706, 18 h",7.6 nM
same,IC50,"SGC7901; Homo sapiens, SGC-7901, 18 h",14.7 nM
same,IC50,"SW1116; Homo sapiens, SW 1116, 18 h",21.5 nM
same,IC50,"A498; Homo sapiens, A498, 18 h",5.3 nM
same,IC50,"ASPC-1; Homo sapiens, ASPC1, 18 h",15.1 nM
same,IC50,"HT-29; Homo sapiens, HT-29, 18 h",9.8 nM
same,IC50,"HeLa; Homo sapiens, 18 h",17.3 nM
same,IC50,"GL15; Neuroblastoma cell, 18 h",14.3 nM
same,IC50,"B16F1; Mus musculus, B16-F1, 18 h",13.2 nM
same,IC50,"T24; Homo sapiens, T-24, 18 h",13.6 nM
same,IC50,"SKOV3; Homo sapiens, SK-OV-3, 18 h",9.4 nM
same,IC50,"SW579; SW579, 18 h",22.5 nM
same,IC50,"PC-3; Homo sapiens, PC-3, 18 h",11.4 nM
"C=C1C(=O)O[C@H]2[C@H]1CC[C@]1(C)O[C@@]13CC[C@@](C)(O)[C@H]23 [Compound IV, 1,10-Epoxymicheliolide]",IC50,"HL-60; Homo sapiens, HL-60, 18 h",5.8 nM
same,IC50,"K562; Homo sapiens, K562, 18 h",9.7 nM
same,IC50,"MCF-7; Homo sapiens, MCF7, 18 h",8.9 nM
same,IC50,CNE-1; 18 h,6.7 nM
same,IC50,"CNE-2; Homo sapiens, CNE-2, 18 h",5.6 nM
same,IC50,"SW620; Homo sapiens, SW-620, 18 h",3.8 nM
same,IC50,"A549; Homo sapiens, A549, 18 h",5.7 nM
same,IC50,"HepG-2; Homo sapiens, HepG2, 18 h",7.4 nM
same,IC50,"Ec9706; Homo sapiens, EC9706, 18 h",6.6 nM
same,IC50,"SGC7901; Homo sapiens, SGC-7901, 18 h",13.4 nM
same,IC50,"SW1116; Homo sapiens, SW 1116, 18 h",11.7 nM
same,IC50,"A498; Homo sapiens, A498, 18 h",4.3 nM
same,IC50,"ASPC-1; Homo sapiens, ASPC1, 18 h",26.4 nM
same,IC50,"HT-29; Homo sapiens, HT-29, 18 h",9.8 nM
same,IC50,"HeLa; Homo sapiens, 18 h",9.7 nM
same,IC50,"GL15; Neuroblastoma cell, 18 h",21.5 nM
same,IC50,"B16F1; Mus musculus, B16-F1, 18 h",5.2 nM
same,IC50,"T24; Homo sapiens, T-24, 18 h",7.9 nM
same,IC50,"SKOV3; Homo sapiens, SK-OV-3, 18 h",10.4 nM
same,IC50,"SW579; SW579, 18 h",12.4 nM
same,IC50,"PC-3; Homo sapiens, PC-3, 18 h",17.2 nM
